# Experimental data published in patent publication US8945595B2, “Insect repellent and attractants” (The Regents of the University of California, priority 2009, dated 2015).
# Entries after “also recorded” stand apart in the source; their conditions may differ.
# Tests used:
# [1] = tested on: CO2-sensitive ab1C neurons; assay: single-sensillum electrophysiology, baseline (spontaneous) activity of ab1C neurons; format: cell-based, Drosophila
# Experimental: A number of individual odourants were tested for their ability to inhibit the baseline activity of the neuron using single-sensillum electrophysiology. […] Extracellular single-unit recordings were performed. Odourant stimuli were delivered via Pasteur pipette odour cartridges (see, FIG. 16). Chemicals were of the highest purity available, typically>99% (Sigma-Aldrich). All odourants were diluted in paraffin oil. A controlled volume of air 5 ml/sec was puffed through the odour cartridge containing vapours, and was delivered into a constant humidified airstream of 10 ml/sec that was passed over the fly antenna. […] CO2 stimulus was pulsed through a separate delivery system that delivered controlled pulses (variable 2.5 ml/sec-6.5 ml/sec) into the same humidified airstream, from either a 1%, 5% or 100% tank of CO2 (Airgas). […] Unless mentioned, responses were quantified by subtraction of spontaneous activity from activity during the stimulus. […] Both these compounds are present at electrophysiologically relevant concentrations in Drosophila food sources: 1-hexanol has been detected in various types of fruit including mango, melon, strawberry, passion fruit, muskmelon and banana; 2,3-butanedione is a natural by-product of fermentation by yeast and is thus also present in beer.
# wild-type Drosophila = assay: T-maze choice assay, avoidance behavior to CO2, wild-type flies; format: in vivo; settings: 0.67% CO2; 1-hexanol 10^-1, 2,3-butanedione 10^-2
# Experimental: (§1) (a) A t-maze is used to show preference to a test odor or to a solvent. Flies are starved 24 hrs prior to assay. All assays performed for 1-min in the dark. A negative preference index indicates avoidance. (a) Flies in a T-maze were offered a choice between a 15 ml tube infused with 0.1ml of CO2 prior to start of assay, and another that was infused with air. (b) wildtype and Or83b−/− flies were presented with CO2, a mixture of CO2 and 2,3-butanedione (d4on), or d4on alone. (c) Flies were exposed to 10 ul d4on 10^−2 for 1 min, allowed to recover for 2 min in clean air and then assayed for avoidance to CO2. A control exposure to 1 min of 2-methylphenol (2 mpol) at 10^−2 and then a recovery period of 2 min is also assayed for avoidance behavior to CO2. (d) Flies are exposed to d4on for 1 min, allowed to recover for 2 min, and then assayed for behavior to ethyl acetate (2AC). Behavior to 2AC without pre-exposure is also measured. […]
# (§2) T-maze behavioral testing using Drosophila stress odour, CO2, and mixtures were using techniques known in the art, with some modifications. […] The avoidance response was calculated as a Preference Index (PI)=(number of flies in test arm−number of flies in control arm)/(total number of flies in assay). […] The avoidance response was calculated as a Preference Index (PI)=(number of flies in test arm−number of flies in control arm)/(total number of flies in assay). […]
# Or83b2 mutant flies = assay: T-maze choice assay, avoidance behavior to CO2, Or83b2 mutant flies; format: in vivo, Drosophila; settings: odourant with CO2
# Experimental: as §1, §2
# [2] = tested on: CO2 sensitive A neuron of peg sensillum; assay: activation of CO2 sensitive neuron with a volatile odorant; format: cell-based, Aedes aegypti; settings: 1 sec puff, indicated dilution
# Experimental: (§3) FIG. 2 depicts electrophysiology measurements of the peg sensillum on the mosquito maxillary palp. The palp, indicated in brown in the schematic of the mosquito head, has several peg sensilla. Each peg sensilla (grey club-like structure in the center) contains three olfactory neurons A, B and C as indicated, of which the ‘A’ neuron gives a robust and specific increase in frequency of action potentials in response to a stimulus of CO2. Extracellular single-unit recordings are performed by inserting a glass microelectrode into the peg sensilla, and puffing an odor such as CO2 towards the mosquito maxillary palps. The signal is amplified to obtain the trace of action potentials.
# (§4) (a) Action potential traces from the peg sensillum of the maxillary palp show spike amplitudes from three neurons, where the spikes with the largest amplitude belongs to the CO2 sensitive A neuron. (b) 1 sec of the indicated dilution 2,3-butanedione is puffed to Aedes aegypti. (c) 1 sec of indicated odor is puffed to Anopheles gambiae. (d) butanone and (e) 2,3-butanedione are given to Culex quinquefasciatus at the indicated concentrations. PO=paraffin oil. n=5. Baseline activity subtracted. Error bars indicate SEM.
# [3] = tested on: CO2 sensitive A neuron of peg sensillum; assay: as above; format: cell-based, Culex quinquefasciatus; settings: indicated concentrations
# Experimental: as §3, §4
compound,measurement,setting,value
CCCCCCO [1-hexanol],inhibition of spontaneous activity of ab1C neurons,[1],strongly inhibit
same,avoidance behavior to CO2 (Preference Index),wild-type Drosophila,reduction in mean avoidance behavior
same,avoidance behavior to CO2 (Preference Index),Or83b2 mutant flies,significantly reduced
"CC(=O)C(C)=O [2,3-butanedione]",inhibition of spontaneous activity of ab1C neurons,[1],strongly inhibit
same,avoidance behavior to CO2 (Preference Index),wild-type Drosophila,reduction in mean avoidance behavior; also recorded: abolished
same,avoidance behavior to CO2 (Preference Index),Or83b2 mutant flies,significantly reduced
same,activation of CO2 sensitive neuron,[2],activation
same,activation of CO2 sensitive neuron,[3],activation
